Laboratory results from patent US20210015881A1 (priority 2016, published 2021).

How the values were obtained:
aconitic arrhythmia = details: for effect on baseline heart rate and contraction (intervals R-R, PQ, QT): i.v. at doses that provide antiarrhythmic effect in 50% of rats; for antiarrhythmic activity and range of antiarrhythmic action, comparison: active doses 5-10 minutes prior to i.v. aconitine
Experimental: The study was conducted in anesthetized white outbred rats. The objective of the experiment was to study the efficiency of intravenous administration of the studied substances and known antiarrhythmic agents in the model of aconitic arrhythmia in anesthetized rats.
The studied substances and medicinal products for comparison were administered in active doses 5-10 minutes prior to intravenous administration of aconitine.

[1] = system: cardiac arrhythmia caused by barium chloride; assay: Cardiac arrhythmia caused by barium chloride; type: in vivo, rats
Experimental: The study was conducted in 60 white outbred rats. […] Out of 15 control animals, which received barium chloride at a dose of 20 mg/kg, […] of the rats died.
Rhythm disturbances were mostly of a ventricular type, in the form of ventricular bigeminy, trigeminy, group extrasystoles, transient ventricular standstill, flutter and ventricular fibrillation. In addition, various types of conduction disorders and increased ST segment above contours were observed.
Intravenous administration of the studied substances at doses of 0.05-0.1 mg/kg 10 min prior to the injection of barium chloride prevented the development of arrhythmias in 60-90% of rats. Antiarrhythmic effect of the studied substances combines with antitoxic effect against lethality from barium chloride.

corneal reflex = assay: Terminal (topical) anesthesia of the rabbit eye, method of Rainier-Valet; type: in vivo, rabbits
Experimental: The local anesthetic effect of the studied substances was investigated in 10 rabbits. The effect on terminal anesthesia was investigated by the method of Rainier-Valet, by identifying the corneal reflex to mechanical irritation every 5-10 min after instillation of 2 drops of 0.1%-0.25%-0.5% solutions of the studied substances.
(§1) The time of anesthesia onset, its depth and duration were determined. Activity of the studied substances at topical anesthesia was compared to dicaine; at infiltration anesthesia-to novocaine.

[2] = system: threshold of pain irritation; assay: Infiltration anesthesia in rabbits, method of Bullbring-Vida; type: in vivo; details: 0.5% solution
Experimental: The ability of the medicinal product to cause infiltration anesthesia was studied in rabbits by the method of Bullbring-Vida (pain method).
as §1

`CCOC(=O)Nc1ccc2c(c1)N(C(=O)CCN1CCOCC1)c1ccccc1S2` [Etmozin] was tested, and the “effect on baseline heart rate and contraction (intervals R-R, PQ, QT)” value (aconitic arrhythmia) was “inhibition of the baseline heart rate and contraction” and the “antiarrhythmic activity and range of antiarrhythmic action, comparison” value (aconitic arrhythmia; i.v.) was “most efficient among the reference antiarrhythmic agents”.
With `CCN(CC)CC(=O)Nc1c(C)cccc1C` [Lidocaine] the “duration of effect, comparison” value (aconitic arrhythmia; i.v., active doses prior to aconitine) was “shortest effect”.
With `CCN(CC)CCNC(=O)c1ccc(N)cc1` [Procainamide] the “antiarrhythmic and antitoxic activity, comparison” value ([1]; barium chloride model of ventricular type arrhythmia) was “weakest antiarrhythmic and antitoxic activity”.
`C=C[C@H]1C[N@@]2CC[C@H]1C[C@@H]2[C@@H](O)c1ccnc2ccc(OC)cc12` [Quinidine] was tested, and the “antiarrhythmic and antitoxic effect compared with substances 1-9 at 0.05 mg/kg and 0.1 mg/kg” value ([1]; 5 mg/kg and 10 mg/kg) was “approximately similar” and the “effect on baseline heart rate and contraction (intervals R-R, PQ, QT)” value (aconitic arrhythmia) was “inhibition of the baseline heart rate and contraction”.
In the case of `COc1ccc(CCN(C)CCCC(C#N)(c2ccc(OC)c(OC)c2)C(C)C)cc1OC` (centres unmarked) [Verapamil], the “antiarrhythmic activity and range of antiarrhythmic action, comparison” value (aconitic arrhythmia; i.v.) was “least effective”.
`CCCCNc1ccc(C(=O)OCCN(C)C)cc1` [dicaine] was tested, and the “average duration of terminal anesthesia of the rabbit eye” value (corneal reflex; 0.1%) was 37 min, the “average duration of terminal anesthesia of the rabbit eye” value (corneal reflex; 0.5%) was 52 min and the “onset of terminal anesthesia of the rabbit eye” value (corneal reflex; concentrations of 0.1% and 0.5%) was 1 to 2 min.
`CCN(CC)CCOC(=O)c1ccc(N)cc1` [novocaine] was tested, and the “duration of local anesthetic effect” value [2] was “about 90 min”.
